Patent US8334382B2, “Substituted biaryl piperazinyl-pyridine analogues” (Neurogen Corporation, priority 2004, dated 2012)

Molecular target: T1, human capsaicin receptor (Homo sapiens, UniProt Q8NER1)
T1 construct: expressed in transfected cells; host or cells: HEK293, stably transfected with pBK-CMV construct
Assay: Calcium mobilization assay, determination of antagonist activity
Type: cell-based
Settings: capsaicin at EC50; cells expressing human capsaicin receptor; Example 6
Protocol: A cDNA encoding full length human capsaicin receptor (SEQ ID NO:1, 2 or 3 of U.S. Pat. No. 6,482,611) is subcloned in the plasmid pBK-CMV (Stratagene, La Jolla, Calif.) for recombinant expression in mammalian cells.
Human embryonic kidney (HEK293) cells are transfected with the pBK-CMV expression construct encoding the full length human capsaicin receptor using standard methods. The transfected cells are selected for two weeks in media containing G418 (400 μg/ml) to obtain a pool of stably transfected cells. Independent clones are isolated from this pool by limiting dilution to obtain clonal stable cell lines for use in subsequent experiments.
Cells transfected with expression plasmids (as described in Example 4) and thereby expressing human capsaicin receptor are seeded and grown to 70-90% confluency in FALCON black-walled, clear-bottomed 96-well plates (#3904, BECTON-DICKINSON, Franklin Lakes, N.J.). The culture medium is emptied from the 96 well plates and FLUO-3 AM calcium sensitive dye (Molecular Probes, Eugene, Oreg.) is added to each well (dye solution: 1 mg FLUO-3 AM, 440 μL DMSO and 440 μl 20% pluronic acid in DMSO, diluted 1:250 in Krebs-Ringer HEPES (KRH) buffer (25 mM HEPES, 5 mM KCl, 0.96 mM NaH2PO4, 1 mM MgSO4, 2 mM CaCl2, 5 mM glucose, 1 mM probenecid, pH 7.4), 50 μl diluted solution per well). Plates are covered with aluminum foil and incubated at 37° C. for 1-2 h in an environment containing 5% CO2. After the incubation, the dye is emptied from the plates, and the cells are washed once with KRH buffer, and resuspended in KRH buffer.
To measure the ability of a test compound to agonize or antagonize a calcium mobilization response in cells expressing capsaicin receptors to capsaicin or other vanilloid agonist, the EC50 of the agonist capsaicin is first determined. An additional 20 μl of KRH buffer and 1 μl DMSO is added to each well of cells, prepared as described above. 100 μl capsaicin in KRH buffer is automatically transferred by the FLIPR instrument to each well. Capsaicin-induced calcium mobilization is monitored using either FLUOROSKAN ASCENT (Labsystems; Franklin, Mass.) or FLIPR (fluorometric imaging plate reader system; Molecular Devices, Sunnyvale, Calif.) instruments. Data obtained between 30 and 60 seconds after agonist application are used to generate an 8-point concentration response curve, with final capsaicin concentrations of 1 nM to 3 μM. KALEIDAGRAPH software (Synergy Software, Reading, Pa.) is used to fit the data to the equation: y=a*(1/(1+(b/x)^c)) to determine the 50% excitatory concentration (EC50) for the response. In this equation, y is the maximum fluorescence signal, x is the concentration of the agonist or antagonist (in this case, capsaicin), a is the Emax, b corresponds to the EC50 value and c is the Hill coefficient. Determination of Agonist Activity
Test compounds are dissolved in DMSO, diluted in 20 μl KRH buffer so that the final concentration of test compounds in the assay well is between 1 μM and 5 μM, and added to cells prepared as described above. The 96 well plates containing prepared cells and test compounds are incubated in the dark, at room temperature for 0.5 to 6 h. It is important that the incubation not continue beyond 6 h. Just prior to determining the fluorescence response, 100 μl capsaicin in KRH buffer at twice the EC50 concentration determined as described above is automatically added by the FLIPR instrument to each well of the 96 well plate for a final sample volume of 200 μl and a final capsaicin concentration equal to the EC50. The final concentration of test compounds in the assay wells is between 1 μM and 5 μM. […] The concentration of antagonist required to provide a 50% decrease, relative to the response observed in the presence of capsaicin and without antagonist, is the IC50 for the antagonist, and is preferably below 1 micromolar, 100 nanomolar, 10 nanomolar or 1 nanomolar.

T1 sequence (Q8NER1 whole entry): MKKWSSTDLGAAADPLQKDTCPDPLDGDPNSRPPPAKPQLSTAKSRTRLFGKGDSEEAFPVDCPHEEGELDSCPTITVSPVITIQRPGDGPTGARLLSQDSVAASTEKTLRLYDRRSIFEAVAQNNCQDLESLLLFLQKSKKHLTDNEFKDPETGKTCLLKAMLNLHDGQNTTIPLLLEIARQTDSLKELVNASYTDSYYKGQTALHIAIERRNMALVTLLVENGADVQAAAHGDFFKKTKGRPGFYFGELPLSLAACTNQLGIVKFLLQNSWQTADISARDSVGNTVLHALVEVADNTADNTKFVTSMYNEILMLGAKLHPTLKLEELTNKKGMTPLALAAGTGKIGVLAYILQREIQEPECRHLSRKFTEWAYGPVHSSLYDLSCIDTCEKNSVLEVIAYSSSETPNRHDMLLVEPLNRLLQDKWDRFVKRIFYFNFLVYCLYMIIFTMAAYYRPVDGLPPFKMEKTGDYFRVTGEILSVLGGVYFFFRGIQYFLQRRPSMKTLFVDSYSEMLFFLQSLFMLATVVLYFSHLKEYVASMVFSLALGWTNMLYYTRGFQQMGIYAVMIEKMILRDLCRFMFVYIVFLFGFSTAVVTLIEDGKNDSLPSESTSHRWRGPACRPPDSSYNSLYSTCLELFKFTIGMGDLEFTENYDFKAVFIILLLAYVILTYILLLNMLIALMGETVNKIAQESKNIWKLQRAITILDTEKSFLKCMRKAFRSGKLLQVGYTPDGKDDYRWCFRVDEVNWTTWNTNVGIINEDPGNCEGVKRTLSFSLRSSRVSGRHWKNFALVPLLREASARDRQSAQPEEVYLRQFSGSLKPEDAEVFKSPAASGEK

SMILES	IC50
CC1CCCN1c1nc(-c2ccc(F)c(Cl)c2)cc(N2CCN(c3ncc(CO)cc3Cl)CC2)n1 (stereo not drawn) [Example 10, (5-Chloro-6-{4-[6-(3-chloro-4-fluoro-phenyl)-2-(2-methyl-pyrrolidin-1-yl)-pyrimidin-4-yl]-piperazin-1-yl}-pyridin-3-yl)-methanol]	≤ 1 µM
Cc1cc(C(=O)NCC2CCCO2)cnc1N1CCN(c2cc(-c3ccc(F)cc3)nc(N3CCCC3C)n2)CC1 (stereo not drawn) [Example 111, 6-{4-[6-(4-fluorophenyl)-2-(2-methylpyrrolidin-1-yl)pyrimidin-4-yl]piperazin-1-yl}-5-methyl-N-(tetrahydrofuran-2-ylmethyl)nicotinamide]	≤ 1 µM
Cc1cc(C(=O)O)cnc1N1CCN(c2cc(-c3ccc(F)cc3)nc(N(C)C)n2)[C@H](C)C1 [Example 81, 6-{4-[2-Dimethylamino-6-(4-fluoro-phenyl) - pyrimidin-4-yl]-3-(R)-methyl-piperazin-1-yl}-5-methyl-nicotinic acid]	≤ 1 µM
Cc1cc(CC(=O)OC(C)(C)C)cnc1N1CCN(c2cc(-c3ccc(F)cc3)nc(N3CCC[C@H]3C)n2)[C@H](C)C1 (relative stereo) [Example 190, tert-butyl rel-{6-[(3R)-4-{6-(4-fluorophenyl)-2-[(2R)-2-methylpyrrolidin-1-yl]pyrimidin-4-yl}-3-methylpiperazin-1-yl]-5-methylpyridin-3-yl}acetate]	≤ 1 µM
Cc1cc(C(N)=O)cnc1N1CCN(c2cc(-c3ccncc3)nc(N(C)C)n2)[C@H](C)C1 [Example 85, 6-[4-(2-Dimethylamino-6-pyridin-4-yl-pyrimidin-4-yl)-3-(R)-methyl-piperazin-1-yl]-5-methyl-nicotinamide]	≤ 1 µM
Cc1ccc(C(N)=O)nc1N1CCN(c2cc(-c3ccc(F)cc3)nc(N3CCC[C@H]3C)n2)[C@H](C)C1 [Example 145, 6-{4-[6-(4-Fluoro-phenyl)-2-(2-(R)-methyl-pyrrolidin-1-yl)-pyrimidin-4-yl]-3-(R)-methyl-piperazin-1-yl}-5-methyl-pyridine-2-carboxylic acid amide]	≤ 1 µM
Cc1cc(C(=O)N2CCCC2C)cnc1N1CCN(c2cc(-c3ccc(F)cc3)nc(N3CCCC3C)n2)CC1 (stereo not drawn) [Example 135, 4-(4-fluorophenyl)-6-(4-{3-methyl-5-[(2-methylpyrrolidin-1-yl)carbonyl]pyridin-2-yl}piperazin-1-yl)-2-(2-methylpyrrolidin-1-yl)pyrimidine]	≤ 1 µM
Cc1cc(C(=O)N(C)Cc2ccccc2)cnc1N1CCN(c2cc(-c3ccc(F)cc3)nc(N3CCCC3C)n2)CC1 (stereo not drawn) [Example 121, N-benzyl-6-{4-[6-(4-fluorophenyl)-2-(2-methylpyrrolidin-1-yl)pyrimidin-4-yl]piperazin-1-yl}-N,5-dimethylnicotinamide]	≤ 1 µM
CC1CCCN1c1nc(-c2ccc(F)c(Cl)c2)cc(N2CCN(c3ncc(C(N)=O)cn3)CC2)n1 (stereo not drawn) [Example 97, 2-{4-[6-(3-Chloro-4-fluoro-phenyl)-2-(2-methyl-pyrrolidin-1-yl)-pyrimidin-4-yl]-piperazin-1-yl}-pyrimidine-5-carboxylic acid amide]	≤ 1 µM
Cc1cc(C(=O)N2CCOCC2)cnc1N1CCN(c2cc(-c3ccc(F)cc3)nc(N3CCCC3C)n2)CC1 (stereo not drawn) [Example 124, 4-[(6-{4-[6-(4-fluorophenyl)-2-(2-methylpyrrolidin-1-yl)pyrimidin-4-yl]piperazin-1-yl}-5-methylpyridin-3-yl)carbonyl]morpholine]	≤ 1 µM

The remaining lines, values ahead:

IC50	SMILES
≤ 1 µM	CCOC(=O)c1cnc(N2CCN(c3cc(-c4ccc(F)c(Cl)c4)nc(N4CCC[C@H]4C)n3)C[C@H]2C)c(Cl)c1 [Example 174, 5-Chloro-6-{4-[6-(3-chloro-4-fluoro-phenyl)-2-(2-(R)-methyl-pyrrolidin-1-yl)-pyrimidin-4-yl]-2-(R)-methyl-piperazin-1-yl}-nicotinic acid ethyl ester]
≤ 1 µM	CCOC(=O)c1cnc(N2CCN(c3cc(-c4cccc(C)c4)nc(N4CCCC4C)n3)[C@H](C)C2)c(Cl)c1 (stereo partly drawn) [Example 46, 5-Chloro-6-{3-(R)-methyl-4-[2-(2-methyl-pyrrolidin-1-yl)-6-m-tolyl-pyrimidin-4-yl]-piperazin-1-yl}-nicotinic acid ethyl ester]
≤ 1 µM	C[C@@H]1CN(c2ncc(CO)cc2Cl)CCN1c1cc(-c2ccc(F)c(Cl)c2)nc(N2CCC[C@H]2C)n1 [Example 146, (5-Chloro-6-{4-[6-(3-chloro-4-fluoro-phenyl)-2-(2-(R)-methyl-pyrrolidin-1-yl)-pyrimidin-4-yl]-3-(R)-methyl-piperazin-1-yl}-pyridin-3-yl)-methanol]
≤ 1 µM	COC(=O)c1cnc(N2CCN(c3cc(-c4ccc(F)c(Cl)c4)nc(N4CCCC4C)n3)[C@H](C)C2)c(Cl)c1 (stereo partly drawn) [Example 8, 5-Chloro-6-{4-[6-(3-chloro-4-fluoro-phenyl)-2-(2-methyl-pyrrolidin-1-yl)-pyrimidin-4-yl]-3-(R)-methyl-piperazin-1-yl}-nicotinic acid methyl ester]
≤ 1 µM	C[C@@H]1CN(c2ncc(C(=O)O)cc2Cl)CCN1c1cc(-c2ccc(F)cc2)nc(N2CCOC[C@H]2C)n1 [Example 104, 5-Chloro-6-{4-[6-(4-fluoro-phenyl)-2-(3-(R)-methyl-morpholin-4-yl)-pyrimidin-4-yl]-3-(R)-methyl-piperazin-1-yl}-nicotinic acid]
≤ 1 µM	CC1CCCN1c1nc(-c2ccc(F)cc2)cc(N2CCN(c3ncc(C(N)=O)cc3Cl)C[C@H]2C)n1 (stereo partly drawn) [Example 33, 5-Chloro-6-{4-[6-(4-fluoro-phenyl)-2-(2-methyl-pyrrolidin-1-yl)-pyrimidin-4-yl]-3-(R)-methyl-piperazin-1-yl}-nicotinamide]
≤ 1 µM	CCOC(=O)c1cnc(N2CCN(c3cc(-c4ccccc4)nc(N4CCCC4C)n3)[C@H](C)C2)c(C)c1 (stereo partly drawn) [Example 58, 5-Methyl-6-{3-(R)-methyl-4-[2-(2-methyl-pyrrolidin-1-yl)-6-phenyl-pyrimidin-4-yl]-piperazin-1-yl}-nicotinic acid ethyl ester]
≤ 1 µM	Cc1cc(C(N)=O)cnc1N1CCN(c2cc(-c3ccccc3)nc(N3CCCC3C)n2)CC1 (stereo not drawn) [Example 87, 5-Methyl-6-{4-[2-(2-methyl-pyrrolidin-1-yl)-6-phenyl-pyrimidin-4-yl]-piperazin-1-yl}-nicotinamide]
≤ 1 µM	CC1CCCN1c1nc(-c2ccc(F)c(Cl)c2)cc(N2CCN(c3ncc(C(N)=O)cc3Cl)C[C@H]2C)n1 (stereo partly drawn) [Example 24, 5-Chloro-6-{4-[6-(3-chloro-4-fluoro-phenyl)-2-(2-methyl-pyrrolidin-1-yl)-pyrimidin-4-yl]-3-(R)-methyl-piperazin-l-yl}-nicotinamide]
≤ 1 µM	CCOC(=O)c1cnc(N2CCN(c3cc(-c4ccccc4)nc(N4CCCC4C)n3)[C@H](C)C2)c(Cl)c1 (stereo partly drawn) [Example 41, 5-Chloro-6-{3-(R)-methyl-4-[2-(2-methyl-pyrrolidin-1-yl)-6-phenyl-pyrimidin-4-yl]-piperazin-1-yl}-nicotinic acid ethyl ester]
≤ 1 µM	C[C@@H]1CN(c2ncc(/C=C/CO)cc2Cl)CCN1c1cc(-c2ccc(F)c(Cl)c2)nc(N2CCC[C@H]2C)n1 (relative stereo) [Example 191, rel-(2E)-3-{5-chloro-6-[(3R)-4-{6-(3-chloro-4-fluorophenyl)-2-[(2R)-2-methylpyrrolidin-1-yl]pyrimidin-4-yl}-3-methylpiperazin-1-yl]pyridin-3-yl}prop-2-en-1-ol]
